Data from patent publication US9988366B2, “Pesticidally active heterocyclic derivatives with sulphur containing substituents” (Syngenta Participations AG, priority 2014, dated 2018).

Tests used:
Assay type in all cases: in vivo
[1] = system: Diabrotica balteata (corn root worm); test: Example B4: Diabrotica balteata larvae L2 on maize sprouts, feeding/contact, preventative; details: 120 h, 5 days, read-out: activity (larval mortality and growth regulation)
Method: Example B4: Activity Against Diabrotica balteata (Corn Root Worm)
(Larvae L2 on Maize Sprouts, Feeding/Contact, Preventative)
Maize sprouts, placed on an agar layer in 24 well micro titer plates were treated with test solutions by spraying. After drying, the MTPs were infested with L2 larvae (6-10 per well). After an incubation period of 5 days, samples were checked for larval mortality and growth regulation.

[2] = system: Plutella xylostella (diamond back moth); test: Example B3: Plutella xylostella larvicide, feeding/residual contact activity, preventive (artificial diet); details: 120 h, L2 larvae on artificial diet, 5 days, read-out: activity (larval mortality, antifeedant and growth regulation)
Method: Example B3: Activity Against Plutella xylostella (Diamond Back Moth)
(§1) (Larvicide, Feeding/Residual Contact Activity, Preventive)
24-well microtiter plate (MTP) with artificial diet was treated with test solutions by pipetting. After drying, the MTPs were infested with L2 larvae (10-15 per well). After an incubation period of 5 days, samples were checked for larval mortality, antifeedant and growth regulation.

[3] = system: Spodoptera littoralis (Egyptian cotton leaf worm); test: Example B1: Spodoptera littoralis larvicide, feeding/residual contact activity, preventive (cotton leaf discs); details: foliar, 72 h, L1 larvae on sprayed cotton leaf discs, 3 days after treatment, read-out: effect in at least one of the three categories (mortality, anti-feedancy, or growth inhibition)
Text: Example B1: Activity Against Spodoptera littoralis (Egyptian Cotton Leaf Worm)
as §1
Cotton leaf discs were placed on agar in a 24-well microtiter plate and sprayed with test solutions. After drying, the leaf discs were infested with five L1 larvae. The samples were checked for mortality, repellent effect, feeding behaviour, and growth regulation 3 days after treatment (DAT). Control of Spodoptera littoralis by a test sample is when at least one of mortality, anti-feedant effect, and growth inhibition is higher than an untreated sample.

[4] = system: Myzus persicae (green peach aphid); test: Example B6: Myzus persicae feeding activity sachet test, mixed population; details: 120 h, sucrose solution, 5 days after infestation
Text: Example B6: Activity Against Myzus persicae (Green Peach Aphid)
(Feeding Activity Sachet Test), Mixed Population
Test compounds were applied by pipette into 24 well plates and mixed with Sucrose solution. The plates were closed with a stretched Parafilm. A plastic stencil with 24 holes is placed onto the plate and infested pea seedlings were placed directly on the Parafilm. The infested plate is closed with a gel blotting paper and another plastic stencil and then turned upside down. 5 days after infestation the samples were checked on mortality. Application rate: 12.5 ppm.

[5] = system: Myzus persicae (green peach aphid); test: Example B5: Myzus persicae feeding/residual contact activity, preventive, mixed population (sunflower leaf discs); details: foliar, 144 h, mixed population on sunflower leaf discs, 6 DAT
Method: Example B5: Activity Against Myzus persicae (Green Peach Aphid)
(Feeding/Residual Contact Activity, Preventive), Mixed Population
Sunflower leaf discs were placed on agar in a 24-well microtiter plate and sprayed with test solutions. After drying, the leaf discs were infested with an aphid population of mixed ages. After an incubation period of 6 DAT, samples were checked for mortality and special effects (e.g. phytotoxicity).

[6] = system: Euschistus heros (neotropical brown stink bug); test: Example B8: Euschistus heros, soybean leaf spray test; details: 120 h, N-2 nymphs on soybean leaf, 5 days after infestation
Method: Example B8: Activity Against Euschistus heros (Neotropical Brown Stink Bug)
Soybean leaf on agar in 24-well microtiter plates were sprayed with aqueous test solutions prepared from 10,000 ppm DMSO stock solutions. After drying the leaf were infested with N-2 nymphs. The samples were assessed for mortality 5 days after infestation.

SMILES	mortality at 400 ppm [1] [%]	mortality at 400 ppm [2] [%]	percent control (mortality, anti-feedancy or growth inhibition) at 400 ppm [3] [%]	mortality at 12.5 ppm [4] [%]	mortality at 400 ppm [5] [%]	mortality at 400 ppm [6] [%]
CCS(=O)(=O)c1cc(C(F)(F)F)cnc1-c1ncc(-c2ccnc(Cl)c2)n1C [Compound P28]	> 80	> 80	≥ 80			
CCS(=O)(=O)c1cc(C(F)(F)F)cnc1-c1ncc(-c2ccc(F)c(Cl)c2)n1C [Compound P53]	> 80	> 80	≥ 80			
CCS(=O)(=O)c1cc(C(F)(F)F)cnc1-c1ncc(-c2ccc(C(F)(F)F)c(C(F)(F)F)c2)n1C [Compound P49]	> 80	> 80	≥ 80			
CCS(=O)(=O)c1cc(C(F)(F)F)cnc1-c1ncc(-c2cccc(C#N)c2)n1C [Compound P41]	> 80		≥ 80	≥ 80		
CCn1c(-c2ccc(C(F)(F)F)nc2)cnc1-c1ncc(C(F)(F)F)cc1S(=O)(=O)CC [Compound P11]	> 80	> 80	≥ 80		> 80	
CCS(=O)(=O)c1cc(C(F)(F)F)cnc1-c1ncc(-c2ccc(Cl)cc2)n1C [Compound P18]	> 80	> 80	≥ 80			
CCS(=O)(=O)c1cc(C(F)(F)F)cnc1-c1ncc(-c2ccc(C(F)(C(F)(F)F)C(F)(F)F)cc2)n1C [Compound P24]	> 80	> 80	≥ 80			
CCS(=O)(=O)c1cc(C(F)(F)F)cnc1-c1ncc(-c2cc(C(F)(F)F)cc(Cl)n2)n1C [Compound P51]	> 80	> 80	≥ 80			
CCS(=O)(=O)c1cc(C(F)(F)F)cnc1-c1ncc(-c2cccc(C(F)(F)F)c2)n1C [Compound P1, 3-ethylsulfonyl-2-[1-methyl-5-[3-(trifluoromethyl)phenyl]imidazol-2-yl]-5-(trifluoromethyl)pyridine]	> 80		≥ 80	≥ 80	> 80	
CCS(=O)(=O)c1cc(C(F)(F)F)cnc1-c1cnc(-c2cc(Cl)cc(Cl)c2)n1C [Compound P17]	> 80	> 80	≥ 80			
CCS(=O)(=O)c1cc(C(F)(F)F)cnc1-c1ncc(-c2cccc(C(F)(F)F)n2)n1C [Compound P8]			≥ 80		> 80	> 80
CCS(=O)(=O)c1cc(C(F)(F)F)cnc1-c1ncc(-c2cncc(C(F)(F)F)c2)n1C [Compound P5]			≥ 80		> 80	
CCS(=O)(=O)c1cc(C(F)(F)F)cnc1-c1ncc(-c2ccc(C#N)nc2)n1C [Compound P47]	> 80		≥ 80			
CCS(=O)(=O)c1cc(C(F)(F)F)cnc1-c1ncc(-c2cc(C#N)ccc2Cl)n1C [Compound P32]	> 80					
CCS(=O)(=O)c1cc(C(F)(F)F)cnc1-c1ncc(-c2ccc(Cl)c(F)c2)n1C [Compound P25]	> 80	> 80	≥ 80	≥ 80		> 80
CCS(=O)(=O)c1cc(C(F)(F)F)cnc1-c1ncc(-c2cccc(C#N)n2)n1C [Compound P26]	> 80					
CCS(=O)(=O)c1cc(C(F)(F)F)cnc1-c1ncc(-c2cccc(S(=O)(=O)C(F)(F)F)c2)n1C [Compound P14]			≥ 80		> 80	
CCS(=O)(=O)c1cc(C(F)(F)F)cnc1-c1ncc(-c2ccc(Cl)c(Cl)c2)n1C [Compound P35]	> 80	> 80	≥ 80			> 80

SMILES	mortality at 400 ppm [1] [%]	mortality at 400 ppm [2] [%]	percent control (mortality, anti-feedancy or growth inhibition) at 400 ppm [3] [%]	mortality at 12.5 ppm [4] [%]	mortality at 400 ppm [5] [%]	mortality at 400 ppm [6] [%]
CCS(=O)(=O)c1cc(C(F)(F)F)cnc1-c1ncc(-c2ccc(C(F)(F)F)cc2Cl)n1C [Compound P30]	> 80		≥ 80			
CCS(=O)(=O)c1cc(C(F)(F)F)cnc1-c1ncc(-c2cc(C(F)(F)F)ccc2F)n1C [Compound P20]	> 80					
CCS(=O)(=O)c1cc(C(F)(F)F)cnc1-c1ncc(-c2cc(C(F)(F)F)cc(C(F)(F)F)c2)n1C [Compound P52]	> 80	> 80	≥ 80			
CCS(=O)(=O)c1cc(C(F)(F)F)cnc1-c1ncc(-c2ccc(F)c(F)c2)n1C [Compound P43]	> 80	> 80	≥ 80	≥ 80		
CCS(=O)(=O)c1cc(C(F)(F)F)cnc1-c1nc(Cl)c(-c2ccc(C(F)(F)F)cc2)n1C [Compound P7]	> 80		≥ 80			
CCS(=O)(=O)c1cc(C(F)(F)F)cnc1-c1ncc(-c2cccc(Cl)c2)n1C [Compound P34]	> 80					
CCS(=O)(=O)c1cc(C(F)(F)F)cnc1-c1ncc(-c2cccc(C(F)(F)Cl)c2)n1C [Compound P29]	> 80	> 80	≥ 80			> 80
CCS(=O)(=O)c1cc(C(F)(F)F)cnc1-c1ncc(-c2cccc(OC(F)(F)F)c2)n1C [Compound P22]	> 80		≥ 80			
CCS(=O)(=O)c1cc(C(F)(F)F)cnc1-c1ncc(-c2ccc3c(c2)OC(F)(F)O3)n1C [Compound P48]	> 80	> 80	≥ 80			
CCS(=O)(=O)c1cc(C(F)(F)F)cnc1-c1ncc(-c2ccc(Cl)c(C(F)(F)F)c2)n1C [Compound P38]	> 80	> 80	≥ 80	≥ 80		> 80
CCS(=O)(=O)c1cc(C(F)(F)F)cnc1-c1ncc(-c2ccc(Cl)c(Cl)c2F)n1C [Compound P33]	> 80	> 80	≥ 80			
CCS(=O)(=O)c1cc(C(F)(F)F)cnc1-c1ncc(-c2cc(F)cc(F)c2)n1C [Compound P36]	> 80					
CCS(=O)(=O)c1cc(C(F)(F)F)cnc1-c1ncc(-c2ccc(Cl)nc2)n1C [Compound P23]	> 80	> 80	≥ 80	≥ 80		
CCS(=O)(=O)c1cc(C(F)(F)F)cnc1-c1ncc(-c2ccc(C#N)cc2)n1C [Compound P45]	> 80	> 80	≥ 80	≥ 80		
CCS(=O)(=O)c1cc(C(F)(F)F)cnc1-c1ncc(-c2ccc(OC(F)(F)F)cc2)n1C [Compound P40]	> 80	> 80	≥ 80	≥ 80		> 80
CCS(=O)(=O)c1cc(C(F)(F)F)cnc1-c1ncc(-c2cc(F)c(F)c(F)c2)n1C [Compound P44]	> 80	> 80	≥ 80			
CCS(=O)(=O)c1cc(C(F)(F)F)cnc1-c1nc(C)c(-c2ccc(C(F)(F)F)cc2)n1C [Compound P16]	> 80					
CCS(=O)(=O)c1cc(C(F)(F)F)cnc1-c1ncc(-c2cccc(SC(F)(F)F)c2)n1C [Compound P13]			≥ 80			
